This is an account of results in patent US20170009266A1, “PROCESS FOR THE ATTACHMENT OF A GALNAC MOIETY COMPRISING A (HETERO)ARYL GROUP TO A GLCNAC MOIETY, AND PRODUCT OBTAINED THEREBY” (SYNAFFIX B.V., priority 2014, published 2017).

The target of the assay is T1, Gal-T1(Y289L,C342T) (Bos taurus, UniProt P08037, C342T/Y289L).
T1 construct: host or cells: E. coli
T1 sequence (P08037 130-402 V158I/P187L/I205M/L206V/Y289L/C342T): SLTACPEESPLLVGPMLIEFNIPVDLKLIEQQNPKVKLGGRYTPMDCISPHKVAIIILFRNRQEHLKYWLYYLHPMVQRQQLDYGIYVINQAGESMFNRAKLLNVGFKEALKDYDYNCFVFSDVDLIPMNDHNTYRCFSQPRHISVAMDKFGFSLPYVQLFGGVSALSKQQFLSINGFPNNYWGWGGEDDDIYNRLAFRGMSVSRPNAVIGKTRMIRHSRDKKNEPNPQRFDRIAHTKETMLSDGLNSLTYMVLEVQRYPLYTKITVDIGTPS
The assay can be described thus: Glycosyltransfer of UDP-galactosamine derivatives to trimmed antibody with Gal-T1(Y289L,C342T), mass spectral analysis. Format: biochemical, bovine. As for the experimental part: A solution of 20 μg (modified) IgG was incubated for 1 hour at 37° C. with Fabricator™ (commercially available from Genovis, Lund, Sweden) (1.25 U/μL) in phosphate-buffered saline (PBS) pH 6.6 in a total volume of 10 μL. Fabricator™-digested samples were washed trice with milliQ using an Amicon Ultra-0.5, Ultracel-10 Membrane (Millipore) resulting in a final sample volume of approximately 40 μL. The Fc/2 fragment was analyzed by electrospray ionization time-of-flight (ESI-TOF) on a JEOL AccuTOF. Deconvoluted spectra were obtained using Magtran software.
Trimmed trastuzumab (10 mg/mL, 3.3 nmol), obtained by Endo S treatment of trastuzumab, was incubated with nicotinic acid variant of UDP-galactosamine (21, 2 mM) and Gal-T1(Y289L,C342T) (0.5 mg/mL, 3 μL/4 mg/ml) in 10 mM MnCl2 and 25 mM Tris-HCl pH 7.5 at 30° C. overnight. Mass spectral analysis of the sample after treatment with Fabricator™ (commercially available from Genovis) indicated the formation of the correct structure of CH2-CH3 fragment of 28 (24404 Da, expected mass 24405 Da, approximately 35% conversion), resulting from galactosamide nicotinic acid transfer to core GlcNAc(Fuc) substituted trastuzumab heavy chain.
A pET22b vector containing the sequence encoding residues 130-402 of bovine Gal-T1 with the Y289L and C342T mutations between the NdeI-BamHI sites was obtained from Genscript. Using this plasmid Gal-T1(Y289L,C342T) was expressed, isolated and refolded from inclusion bodies according to the reported procedure by Qasba et al. (Prot. Expr. Pur. 2003, 30, 219-76229, incorporated by reference herein). After refolding, the solution was dialyzed against 20 mM Tris pH 7.5 and the insoluble protein was removed by centrifugation (10 minutes 10.000 g). The soluble Gal-T1(Y289L,C342T), represented by SEQ ID NO: 25, was purified and concentrated using a cation exchange column (Source 15S HR16/10 column, GE Healthcare). After elution with 20 mM Tris-HCl pH 7.5, 1 M NaCl, the protein was dialyzed against 20 mM Tris-HCl pH 7.5. This procedure yielded 90 mg inclusion bodies from 0.5 L culture, which after refolding gave 3.9 mg active soluble protein.
Trimmed trastuzumab (10 mg/mL, 66 μM), obtained by Endo S treatment of trastuzumab, was incubated with the 4-azido-2,3,5,6-tetrafluorobenzoyl derivative of UDP-galactosamine (23b, 1 mM) and Gal-T1(Y289L,C342T) (1.0 mg/mL) in 10 mM MnCl2 and 25 mM Tris-HCl pH 8.0 at 30° C. overnight. Mass spectral analysis of the Fabricator™-digested sample indicated a partial conversion of core GlcNac(Fuc)-substituted trastuzumab (observed mass 24139 Da, calculated mass of 24136 Da) into the product 30b (observed mass 24518 Da, calculated mass of 24514 Da, approximately 10% of total Fc/2 fragment), resulting from transfer of 23b to core GlcNAc(Fuc)-substituted trastuzumab.
Trimmed cetuximab (5 mg/mL, 33 μM), obtained by Endo S treatment of cetuximab, was incubated with the 4-azido-2,3,5,6-tetrafluorobenzoyl derivative of UDP-galactosamine (23b, 2 mM) and Gal-T1(Y289L,C342T) (1.0 mg/mL) in 25 mM Tris-HCL pH 7.5 and 150 mM NaCl at 30° C. overnight. Mass spectral analysis of the Fabricator™-digested sample indicated a partial conversion of the core GlcNac(Fuc)-substituted adalimumab (observed mass 24138 Da, calculated mass of 24136 Da) into product 30b (observed mass 24518 Da, calculated mass of 24514 Da, approximately 20% of total Fc/2 fragment), resulting from transfer of 23b to core GlcNAc(Fuc)-substituted adalimumab.
Trimmed bevacizumab (5 mg/mL, 33 μM), obtained by Endo S treatment of bevacizumab, was incubated with the 4-azido-2,3,5,6-tetrafluorobenzoyl derivative of UDP-galactosamine (23b, 2 mM) and Gal-T1(Y289L,C342T) (1.0 mg/mL) in 25 mM Tris-HCL pH 7.5 and 150 mM NaCl at 30° C. overnight. […]

On to `O=C(NC1C(OP(=O)(O)OP(=O)(O)OCC2OC(n3ccc(=O)[nH]c3=O)C(O)C2O)OC(CO)C(O)C1O)c1cccnc1` (stereo not shown) [Compound 21, 3-pyridylcarbonyl Derivative of UDP-GalNH2], for which, for the setting “trimmed trastuzumab 10 mg/mL, UDP derivative 2 mM, enzyme 0.5 mg/mL (E. coli), pH 7.5, 30° C. overnight, Fabricator-digested”, the conversion result is listed as “approximately 35%”. Turning to `[N-]=[N+]=Nc1ccc(C(=O)NC2C(OP(=O)(O)OP(=O)(O)OCC3OC(n4ccc(=O)[nH]c4=O)C(O)C3O)OC(CO)C(O)C2O)cn1` (stereo not shown) [Compound 21b, 6-azidonicotinic Acid Derivative of UDP-GalNH2], the “product, % of total Fc/2 fragment” value (trimmed trastuzumab 10 mg/mL, UDP derivative 5 mM, enzyme 1.0 mg/mL, pH 7.5, 30° C. overnight) is reported as “approximately 95%”. For the compound `[N-]=[N+]=Nc1c(F)c(F)c(C(=O)N[C@H]2[C@@H](OP(=O)(O)OP(=O)(O)OC[C@H]3O[C@@H](n4ccc(=O)[nH]c4=O)[C@H](O)[C@@H]3O)O[C@H](CO)[C@H](O)[C@@H]2O)c(F)c1F` [Compound 23b, 4-azido-2,3,5,6-tetrafluorobenzoyl Derivative of UDP-GalNH2], the “product, % of total Fc/2 fragment” value runs as follows: (trimmed adalimumab 5 mg/mL, UDP derivative 2 mM, enzyme 1.0 mg/mL, pH 7.5, 30° C. overnight) “approximately 30%”; (trimmed bevacizumab 5 mg/mL, UDP derivative 2 mM, enzyme 1.0 mg/mL, pH 7.5, 30° C. overnight) “approximately 30%”; (trimmed cetuximab 5 mg/mL, UDP derivative 2 mM, enzyme 1.0 mg/mL, pH 7.5, 30° C. overnight) “approximately 20%”; (trimmed trastuzumab 10 mg/mL, UDP derivative 1 mM, enzyme 1.0 mg/mL, pH 8.0, 30° C. overnight) “approximately 10%”. Consider `[N-]=[N+]=Nc1c(F)cc(C(=O)N[C@H]2[C@@H](OP(=O)(O)OP(=O)(O)OC[C@H]3O[C@@H](n4ccc(=O)[nH]c4=O)[C@H](O)[C@@H]3O)O[C@H](CO)[C@H](O)[C@@H]2O)cc1F` [Compound 23, 4-azido-3,5-difluorobenzoyl Derivative of UDP-GalNH2], for which the “conversion of core GlcNAc(Fuc)-substituted trastuzumab into product” value (trimmed trastuzumab 10 mg/mL, UDP derivative 1 mM, enzyme 1.0 mg/mL, pH 8.0, 30° C. overnight, reduced sample) was “complete conversion”.
